Results on one compound are retold here after patent US20060241177A1, “Novel compounds, pharmaceutical compositions containing same, and methods of use for same” (priority 2002, published 2006).

This test concerns the target T1, Carnitine Palmitoyltransferase-1 (CPT-1) (Homo sapiens, UniProt P50416).
T1 construct: This assay uses permeabilized cells to measure the transfer of [methyl-^14C]L-carnitine; endogenous in cells; host or cells: MCF-7 cells, digitonin-permeabilized
T1 sequence (P50416 1-773): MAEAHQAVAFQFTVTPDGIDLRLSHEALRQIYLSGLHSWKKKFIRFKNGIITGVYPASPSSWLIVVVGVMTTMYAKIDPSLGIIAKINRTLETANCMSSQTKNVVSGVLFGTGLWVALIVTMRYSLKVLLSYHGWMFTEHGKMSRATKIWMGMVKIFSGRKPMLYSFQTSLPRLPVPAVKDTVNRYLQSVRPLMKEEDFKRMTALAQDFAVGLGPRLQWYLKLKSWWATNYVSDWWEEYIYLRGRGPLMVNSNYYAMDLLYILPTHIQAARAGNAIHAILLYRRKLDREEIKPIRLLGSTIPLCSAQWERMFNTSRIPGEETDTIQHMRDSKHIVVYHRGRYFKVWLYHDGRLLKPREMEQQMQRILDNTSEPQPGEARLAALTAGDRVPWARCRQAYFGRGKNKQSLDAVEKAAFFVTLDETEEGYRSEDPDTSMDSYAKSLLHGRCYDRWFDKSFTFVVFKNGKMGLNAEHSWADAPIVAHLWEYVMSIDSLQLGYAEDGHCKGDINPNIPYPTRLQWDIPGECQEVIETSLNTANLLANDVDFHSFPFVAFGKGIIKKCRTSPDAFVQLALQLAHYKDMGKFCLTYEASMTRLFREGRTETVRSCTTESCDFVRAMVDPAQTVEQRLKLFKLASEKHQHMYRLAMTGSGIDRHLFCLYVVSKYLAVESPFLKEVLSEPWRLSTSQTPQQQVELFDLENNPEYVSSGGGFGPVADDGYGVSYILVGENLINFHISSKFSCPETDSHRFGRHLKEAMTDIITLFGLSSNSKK
Kind of test: Carnitine palmitoyltransferase-1 (CPT-1) assay in permeabilized MCF-7 cells. It counts as cell-based. Particulars: MCF at 10 ug.ml. The method, then: Carnitine Palmitoyltransferase-1 (CPT-1) Assay
CPT-1 catalyzes the ATP dependent transfer of long-chain fatty acids from acyl-CoA to acyl-carnitine that is inhibited by malonyl-CoA. As CPT-1 requires the mitochondrial membrane for activity, enzyme activity is measured in permeabilized cells or mitochondria This assay uses permeabilized cells to measure the transfer of [methyl-^14C]L-carnitine to the organically soluble acyl-carnitine deriviative.
MCF-7 cells are plated in DMEM with 10% fetal bovine serum at 10^6 cells in 24-well plates in triplicate for controls, drugs, and malonyl-CoA. Two hours before commencing the assay, drugs are added at the indicated concentrations made from stock solutions at 10 mg/ml in DMSO, vehicle controls consist of DMSO without drug. Since malonyl-CoA cannot enter intact cells, it is only added in the assay buffer to cells that have not been preincubated with drugs. Following overnight incubation at 37° C., the medium is removed and replaced with 700 μl of assay buffer consisting of: 50 mM imidazole, 70 mM KCl, 80 mM sucrose, 1 mM EGTA, 2 mM MgCl2, 1 mM DTT, 1 mM KCN, 1 mM ATP, 0.1% fatty acid free bovine serum albumin, 70 μM palmitoyl-CoA, 0.25 μCi [methyl-^14C]L-carnitine, 40 μg digitonin with drug, DMSO vehicle control, or 20 μM malonyl-CoA. […] The butanol phase is counted by liquid scintillation and represents the acylcarnitine derivative.

With `C=CCNC(=O)[C@@H]1C(=C)C(=O)O[C@H]1CCCCCCCC` (racemic), the “CPT I Stim” value is 400% of control/MCF.
